A value given as a limit tells only on which side of the number the result lay.

This note sets out measurements from ChEMBL document CHEMBL1933028, “Discovery of cyclic amine-substituted benzoic acids as PPARα agonists” (Bioorg Med Chem Lett, 2012).

What all share (format): cell-based
The target in assay [1] is T1, Peroxisome proliferator-activated receptor delta (Homo sapiens, UniProt Q03181).
T1 sequence (Q03181 whole entry): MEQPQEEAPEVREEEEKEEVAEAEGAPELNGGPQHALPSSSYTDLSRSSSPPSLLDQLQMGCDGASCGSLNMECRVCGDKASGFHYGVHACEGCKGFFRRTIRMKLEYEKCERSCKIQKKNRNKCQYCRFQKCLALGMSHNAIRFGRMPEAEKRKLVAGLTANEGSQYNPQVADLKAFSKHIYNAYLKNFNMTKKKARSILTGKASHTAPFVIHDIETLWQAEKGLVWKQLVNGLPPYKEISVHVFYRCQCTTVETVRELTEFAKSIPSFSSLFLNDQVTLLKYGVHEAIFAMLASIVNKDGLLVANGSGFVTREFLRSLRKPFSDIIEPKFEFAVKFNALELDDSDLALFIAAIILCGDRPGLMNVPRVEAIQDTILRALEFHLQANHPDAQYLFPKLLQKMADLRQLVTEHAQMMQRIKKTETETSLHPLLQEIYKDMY
The experiment in a line: Transactivation of human PPARdelta expressed in CHO-K1 cells.

Assay [2] deals with T2, Peroxisome proliferator-activated receptor gamma (Homo sapiens, UniProt P37231).
T2 sequence (P37231 whole entry): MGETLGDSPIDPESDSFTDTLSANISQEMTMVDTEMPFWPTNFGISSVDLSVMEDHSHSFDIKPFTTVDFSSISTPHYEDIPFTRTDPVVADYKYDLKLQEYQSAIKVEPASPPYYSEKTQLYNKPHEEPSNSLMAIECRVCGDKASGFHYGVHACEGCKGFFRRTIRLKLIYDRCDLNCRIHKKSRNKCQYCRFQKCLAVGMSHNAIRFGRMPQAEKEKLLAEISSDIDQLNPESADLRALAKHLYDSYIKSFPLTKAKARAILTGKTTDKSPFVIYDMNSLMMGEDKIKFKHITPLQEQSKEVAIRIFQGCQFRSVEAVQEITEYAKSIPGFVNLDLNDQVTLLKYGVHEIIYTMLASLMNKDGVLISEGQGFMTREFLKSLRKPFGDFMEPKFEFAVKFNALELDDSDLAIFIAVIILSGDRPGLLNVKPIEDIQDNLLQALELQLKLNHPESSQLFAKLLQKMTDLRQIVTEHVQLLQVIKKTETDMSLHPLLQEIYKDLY
The experiment in a line: Transactivation of human PPARgamma expressed in CHO-K1 cells.

Assay [3] deals with T3, Peroxisome proliferator-activated receptor alpha (Homo sapiens, UniProt Q07869).
T3 sequence (Q07869 whole entry): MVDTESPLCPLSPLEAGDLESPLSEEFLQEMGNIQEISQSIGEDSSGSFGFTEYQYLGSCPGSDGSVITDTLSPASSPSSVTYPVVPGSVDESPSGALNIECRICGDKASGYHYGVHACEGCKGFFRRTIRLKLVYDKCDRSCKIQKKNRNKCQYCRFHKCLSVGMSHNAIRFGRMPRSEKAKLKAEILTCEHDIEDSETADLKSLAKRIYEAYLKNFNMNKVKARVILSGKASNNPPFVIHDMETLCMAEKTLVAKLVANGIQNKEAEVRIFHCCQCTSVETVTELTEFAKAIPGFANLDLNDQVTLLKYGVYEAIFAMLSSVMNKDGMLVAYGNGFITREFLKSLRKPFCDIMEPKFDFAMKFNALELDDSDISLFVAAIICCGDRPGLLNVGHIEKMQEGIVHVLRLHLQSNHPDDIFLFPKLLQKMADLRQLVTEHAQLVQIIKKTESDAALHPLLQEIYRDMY
Briefly: Transactivation of human PPARalpha expressed in CHO-K1 cells.

Assay [4] concerns the target T1, Peroxisome proliferator-activated receptor delta. Briefly: Transactivation of human PPARdelta expressed in CHO-K1 cells at 30 uM.

The term EC50 denotes the concentration that produces a half-maximal response. For the molecule `COc1ccc(-c2cccc(C(=O)O)c2)cc1CNC(=O)c1ccc(Oc2ccccc2)cc1`, the EC50 in assay [1] stood at 470 nM; in assay [2] it was 5900 nM; in assay [3], 700 nM.
In the case of `O=C(O)c1cccc(N2CCCC(CNC(=O)c3ccc(Oc4ccc(F)cc4)cc3)C2)c1` (centres undefined), the EC50 in assay [3] is 4400 nM.
For the molecule `Cc1nc(-c2ccc(Cl)cc2)sc1C(=O)NCC1CCCN(c2cccc(C(=O)O)c2)C1` (centres undefined), the EC50 result was “Not Active” in assay [4], more than 4900 nM in assay [2] and 760 nM in assay [3].
In assay [3], `Cc1nc(-c2ccc(Cl)cc2)sc1C(=O)NCC1CCN(c2cccc(C(=O)O)c2)CC1` showed an EC50 of more than 3500 nM.
`Cc1nc(-c2ccc(Cl)cc2)sc1C(=O)NCC1CCN(c2cccc(C(=O)O)c2)C1` (centres undefined): the EC50 result in assay [4] is “Not Active”; in assay [2], more than 10000 nM; in assay [3], 850 nM.
In assay [3], `Cc1nc(-c2ccc(Cl)cc2)sc1C(=O)NCC1CCCCN(c2cccc(C(=O)O)c2)C1` (centres undefined) had an EC50 of 700 nM.
Turning to `Cc1nc(-c2ccc(Cl)cc2)sc1C(=O)NCC1CN(c2cccc(C(=O)O)c2)CCO1` (centres undefined), the EC50 is more than 17000 nM in assay [1], more than 15000 nM in assay [2] and 810 nM in assay [3].
In assay [3], `Cc1nc(-c2ccc(Cl)cc2)sc1CNC(=O)C1CCCN(c2cccc(C(=O)O)c2)C1` (centres undefined) displayed an EC50 of more than 14000 nM.
For `Cc1nc(-c2ccc(Cl)cc2)sc1CC(=O)NC1CCCN(c2cccc(C(=O)O)c2)C1` (centres undefined), in assay [3], the EC50 is more than 12000 nM.
Turning to `Cc1nc(-c2ccc(Cl)cc2)sc1C(=O)NC1CCCN(c2cccc(C(=O)O)c2)C1` (centres undefined), the EC50 is more than 4200 nM in assay [1], more than 10000 nM in assay [2] and 5 nM in assay [3].
As to `Cc1nc(-c2ccc(Cl)cc2)sc1NC(=O)C1CCCN(c2cccc(C(=O)O)c2)C1` (centres undefined), the results for the EC50 result in assay [4], in assay [2] and in assay [3] were “Not Active”, more than 13000 nM and 280 nM, respectively.
The molecule `Cc1nc(-c2ccc(Cl)cc2)sc1C(=O)N(C)C1CCCN(c2cccc(C(=O)O)c2)C1` (centres undefined) showed an EC50 in assay [3] of 3400 nM.
As to `Cc1nc(-c2ccc(Cl)cc2)sc1CNC1CCCN(c2cccc(C(=O)O)c2)C1` (centres undefined), the EC50 in assay [1] was more than 13000 nM; in assay [2], more than 13000 nM; in assay [3], 2400 nM.
As for `Cc1nc(-c2ccc(Cl)cc2)sc1COC1CCCN(c2cccc(C(=O)O)c2)C1` (centres undefined), the EC50 is more than 6300 nM in assay [1], more than 9700 nM in assay [2] and 250 nM in assay [3].
On the same counts, the results for `Cc1nc(-c2ccc(Cl)cc2)sc1/C=C/C1CCCN(c2cccc(C(=O)O)c2)C1` (centres undefined) are more than 8100 nM, more than 9800 nM and 120 nM.
Consider `Cc1nc(-c2ccc(Cl)cc2)sc1CCC1CCCN(c2cccc(C(=O)O)c2)C1` (centres undefined), for which the figures for the EC50 in assay [1], in assay [2] and in assay [3] were more than 6800 nM, more than 6800 nM and 810 nM, respectively.
As to `Cc1nc(-c2ccc(Cl)cc2)sc1C(=O)NC1CCCN(c2ccccc2C(=O)O)C1` (centres undefined), the EC50 in assay [3] is more than 6000 nM.
The molecule `Cc1nc(-c2ccc(Cl)cc2)sc1C(=O)NC1CCCN(c2ccc(C(=O)O)cc2)C1` (centres undefined) returned an EC50 in assay [3] of 1500 nM.
Turning to `Cc1nc(-c2ccc(Cl)cc2)sc1C(=O)N[C@@H]1CCCN(c2cccc(C(=O)O)c2)C1`, the EC50 result in assay [4] is “Not Active”; in assay [2], more than 10000 nM; in assay [3], 1200 nM.
`Cc1sc(-c2ccc(Cl)cc2)nc1C(=O)N[C@H]1CCCN(c2cccc(C(=O)O)c2)C1` yielded an EC50 in assay [3] of more than 3400 nM.
In the case of `Cc1nc(-c2ccc(Cl)cc2)oc1C(=O)N[C@H]1CCCN(c2cccc(C(=O)O)c2)C1`, the EC50 in assay [1] was more than 13000 nM; in assay [2] it was more than 12000 nM; in assay [3], 1500 nM.
For the molecule `Cc1nc(-c2ccccc2)sc1C(=O)N[C@H]1CCCN(c2cccc(C(=O)O)c2)C1`, the concentration giving a half-maximal response (EC50) in assay [1] is 7100 nM; in assay [2], more than 19000 nM; in assay [3], 72 nM.
On the same counts, the results for `Cc1nc(-c2cccc(Cl)c2)sc1C(=O)N[C@H]1CCCN(c2cccc(C(=O)O)c2)C1` are 2400 nM, more than 5200 nM and 26 nM.
On the same counts, the results for `Cc1nc(-c2ccccc2Cl)sc1C(=O)N[C@H]1CCCN(c2cccc(C(=O)O)c2)C1` are 1900 nM, more than 6800 nM and 53 nM.
In the case of `Cc1nc(-c2ccc(F)cc2)sc1C(=O)N[C@H]1CCCN(c2cccc(C(=O)O)c2)C1`, the EC50 in assay [1] is 8800 nM; in assay [2] it was more than 9800 nM; in assay [3], 21 nM.
For `Cc1ccc(-c2nc(C)c(C(=O)N[C@H]3CCCN(c4cccc(C(=O)O)c4)C3)s2)cc1`, the EC50 in assay [1] is 3100 nM; in assay [2], more than 11000 nM; in assay [3], 6 nM.
On the same counts, the results for `COc1ccc(-c2nc(C)c(C(=O)N[C@H]3CCCN(c4cccc(C(=O)O)c4)C3)s2)cc1` are 1800 nM, more than 11000 nM and 23 nM.
On the same counts, the results for `Cc1nc(-c2ccc([N+](=O)[O-])cc2)sc1C(=O)N[C@H]1CCCN(c2cccc(C(=O)O)c2)C1` are more than 11000 nM, more than 13000 nM and 37 nM.
Take `CC[C@@H](Cc1ccc(OC)c(C(=O)NCc2ccc(Oc3ccc(F)cc3)cc2)c1)C(=O)O`: the EC50 in assay [1] stood at 1920 nM; in assay [2], 2500 nM; in assay [3], 13 nM.
